Reference: article PMC2765246 (Journal of medicinal chemistry, 2008)

Assays:
Plasmodium falciparum = conditions: P. falciparum growth inhibition, cited from earlier work; for IC50: read-out: IC50 (cell)
[1] = molecular target: T1, P. vivax FPPS (farnesyl diphosphate synthase) (Plasmodium vivax, UniProt A5K4U6); experiment: P. vivax FPPS inhibition, continuous spectrophotometric phosphate release assay; assay type: biochemical; conditions: pIC50 (enzyme)
T1 sequence (A5K4U6 1-375): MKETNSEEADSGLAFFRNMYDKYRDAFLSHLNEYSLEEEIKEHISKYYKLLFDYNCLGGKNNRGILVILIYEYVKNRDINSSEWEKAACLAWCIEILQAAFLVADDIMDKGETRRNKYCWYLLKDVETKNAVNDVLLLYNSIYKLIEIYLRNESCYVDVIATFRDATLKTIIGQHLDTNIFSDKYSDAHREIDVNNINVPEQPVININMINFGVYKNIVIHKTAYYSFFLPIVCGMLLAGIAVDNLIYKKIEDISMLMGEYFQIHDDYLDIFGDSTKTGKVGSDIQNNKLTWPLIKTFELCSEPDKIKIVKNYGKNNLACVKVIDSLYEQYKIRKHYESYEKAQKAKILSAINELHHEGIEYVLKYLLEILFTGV

[2] = FPPS from Plasmodium vivax, pIC50 = −log10 IC50

In the case of `O=P(O)(O)C(O)(CSc1ccncc1)P(=O)(O)O` [Compound 22], the “pIC50 (cell)” value (Plasmodium falciparum) is given as 3.8.

In the case of `CN(Cc1ccccc1)C(P(=O)(O)O)P(=O)(O)O` [Compound 24], the IC50 [1, 2] is given as 794 nM and the “pIC50 (cell)” value (Plasmodium falciparum) is given as 3.7.

For `O=P(O)(O)C(O)(Cc1ccccn1)P(=O)(O)O` [Compound 26], the IC50 [1] is listed as 1000 nM and the “pIC50 (cell)” value (Plasmodium falciparum) is listed as 3.7.

In the case of `CN(CCCCc1ccccc1)CCC(O)(P(=O)(O)O)P(=O)(O)O` [Compound 3], the “pIC50 (cell)” value (Plasmodium falciparum) is given as 5.5 and the IC50 (Plasmodium falciparum) is given as 2900 nM.

For `CCCCCCC(O)(P(=O)(O)O)P(=O)(O)O` [Compound 1], the “pIC50 (cell)” value (Plasmodium falciparum) is listed as 5.9.

For `O=P(O)(O)C(Nc1ccc(Cl)cn1)P(=O)(O)O` [Compound 8], the “pIC50 (cell)” value (Plasmodium falciparum) is listed as 5.0 and the IC50 (Plasmodium falciparum) is listed as 11000 nM.

In the case of `O=P(O)(O)C(O)(Cc1cccc(Cl)c1)P(=O)(O)O` [Compound 6], the “pIC50 (cell)” value (Plasmodium falciparum) is listed as 5.4.

For `O=P(O)(O)C(O)(Cc1ccccc1)P(=O)(O)O` [Compound 9], the “pIC50 (cell)” value (Plasmodium falciparum) is listed as 5.0.

For `Cc1ccc(C)c(COc2ccc(C)nc2NC(P(=O)(O)O)P(=O)(O)O)c1` [Compound 25], the “pIC50 (cell)” value (Plasmodium falciparum) is given as 3.7.

In the case of `CN(CCCc1ccccc1)CCC(O)(P(=O)(O)O)P(=O)(O)O` [Compound 13], the “pIC50 (cell)” value (Plasmodium falciparum) is listed as 4.6 and the IC50 (Plasmodium falciparum) is listed as 23000 nM.

For `CCCCCCCCCCCCCC(O)(P(=O)(O)O)P(=O)(O)O` [Compound 2], the “pIC50 (cell)” value (Plasmodium falciparum) is listed as 5.7.

Work on `O=P(O)(O)C(O)(Cc1cccc(Br)c1)P(=O)(O)O` [Compound 11] yielded an IC50 [1, 2] of 794 nM.

Work on `O=P(O)(O)C(Nc1nccs1)P(=O)(O)O` [Compound 19] yielded an IC50 [1, 2] of 794 nM.

For `O=P(O)(O)C(O)(Cc1cccc(F)c1)P(=O)(O)O` [Compound 7], the “pIC50 (cell)” value (Plasmodium falciparum) is given as 5.2.

For `O=P(O)(O)C(O)(Cc1cccc(C(F)(F)F)c1)P(=O)(O)O` [Compound 5], the IC50 [1, 2] is given as 631 nM and the “pIC50 (cell)” value (Plasmodium falciparum) is given as 5.4.

Molecule `CCCCCCCCCC(O)(P(=O)(O)O)P(=O)(O)O` [Compound 4] has an IC50 [1, 2] of 794 nM.
